Publication PMC2862277 (The Journal of neuroscience : the official journal of the …, 2010)

Molecular target: NR1/NR2C (Rattus norvegicus, UniProt P35439+Q00961)
Assay: Two electrode voltage clamp recording from Xenopus laevis oocytes
Assay type: cell-based
Settings: read-out: EC50 for glutamate

Sequence of NR1/NR2C (Q00961 20-1237, other chains not shown): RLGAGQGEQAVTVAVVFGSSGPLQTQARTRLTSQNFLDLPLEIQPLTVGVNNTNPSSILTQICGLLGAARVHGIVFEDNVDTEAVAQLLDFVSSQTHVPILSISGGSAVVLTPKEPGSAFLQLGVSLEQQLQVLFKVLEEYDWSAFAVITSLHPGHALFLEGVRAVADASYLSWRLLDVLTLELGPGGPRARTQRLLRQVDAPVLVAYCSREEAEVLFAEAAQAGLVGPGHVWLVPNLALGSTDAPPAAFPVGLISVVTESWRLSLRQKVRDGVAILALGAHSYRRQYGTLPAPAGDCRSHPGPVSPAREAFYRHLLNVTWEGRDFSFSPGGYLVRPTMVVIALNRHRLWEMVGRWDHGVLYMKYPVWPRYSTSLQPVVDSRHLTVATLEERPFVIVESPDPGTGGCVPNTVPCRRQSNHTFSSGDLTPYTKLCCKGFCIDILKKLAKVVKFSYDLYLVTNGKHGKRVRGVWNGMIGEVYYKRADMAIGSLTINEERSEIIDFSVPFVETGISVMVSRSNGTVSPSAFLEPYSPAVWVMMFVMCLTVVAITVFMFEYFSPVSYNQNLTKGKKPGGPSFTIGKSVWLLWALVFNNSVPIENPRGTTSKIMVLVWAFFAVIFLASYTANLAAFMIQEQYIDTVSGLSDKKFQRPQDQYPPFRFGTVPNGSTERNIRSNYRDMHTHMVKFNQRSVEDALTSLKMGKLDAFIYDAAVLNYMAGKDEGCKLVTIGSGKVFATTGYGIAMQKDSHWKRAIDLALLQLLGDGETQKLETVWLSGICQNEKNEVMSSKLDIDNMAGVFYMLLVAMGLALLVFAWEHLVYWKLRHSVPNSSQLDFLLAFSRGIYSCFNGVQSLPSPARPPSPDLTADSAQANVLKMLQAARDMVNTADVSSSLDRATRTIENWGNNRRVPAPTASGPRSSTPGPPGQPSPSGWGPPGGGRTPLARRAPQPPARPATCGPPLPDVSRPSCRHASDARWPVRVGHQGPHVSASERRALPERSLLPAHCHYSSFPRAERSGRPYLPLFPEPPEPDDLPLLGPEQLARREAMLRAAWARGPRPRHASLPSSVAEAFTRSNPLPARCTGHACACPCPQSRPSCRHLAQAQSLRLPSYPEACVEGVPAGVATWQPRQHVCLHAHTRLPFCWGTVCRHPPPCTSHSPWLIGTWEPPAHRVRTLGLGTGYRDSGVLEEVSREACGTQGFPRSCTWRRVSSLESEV

## N[C@@H](CCC(=O)O)C(=O)O [glutamate]
  EC50: 0.42 ± 0.04 µM
